We go through 17 compounds from US20260232750A1, “COMPOSITION AND METHOD FOR INHIBITING ADVANCED GLYCATION END PRODUCTS” (ACCESS BUSINESS GROUP INTERNATIONAL LLC, priority 2022, published 2026).

Holding throughout (assay type): biochemical
Assay [1] in a line: Online UPLC-PDA-MS-ABTS·+ scavenging (post-column derivatisation). As to conditions: online profiling of DOF extract. How it is done:
Online identification of antioxidant components of DOF extract was performed using a UPLC system (Milford, MA, USA) consisting of a Waters photodiode array detector and a Waters postcolumn derivatisation system supplying fresh ABTS solution (UPLC-PDA-QDa-ABTS). […] The detection wavelengths were set at 280 and 734 nm, and the injection volume of the sample was 10 μl.
To detect radical scavengers, the UPLC system was coupled with a Waters pump, which supplied freshly prepared ABTS·+ solution into a reaction coil (15 m, 0.25 mm ID) with a flow rate of 0.2 ml/min at 37° C. Negative peaks were recorded based on a decrease of absorbance at 729 nm after the reaction of individual compounds with the ABTS·+ radical. For preliminary identification of compounds, a Waters Acquity QDa mass detector in negative ionisation mode was connected in series to PDA with the following parameters: electrospray ion source; cone voltage, 15 V; atomiser, N2; and scanning range, 100-800 m/z.

In assay [2] the target is T1, COX-2 (Homo sapiens, UniProt P35354).
T1 construct: purchased Beyotime S0168
T1 sequence (P35354 18-604): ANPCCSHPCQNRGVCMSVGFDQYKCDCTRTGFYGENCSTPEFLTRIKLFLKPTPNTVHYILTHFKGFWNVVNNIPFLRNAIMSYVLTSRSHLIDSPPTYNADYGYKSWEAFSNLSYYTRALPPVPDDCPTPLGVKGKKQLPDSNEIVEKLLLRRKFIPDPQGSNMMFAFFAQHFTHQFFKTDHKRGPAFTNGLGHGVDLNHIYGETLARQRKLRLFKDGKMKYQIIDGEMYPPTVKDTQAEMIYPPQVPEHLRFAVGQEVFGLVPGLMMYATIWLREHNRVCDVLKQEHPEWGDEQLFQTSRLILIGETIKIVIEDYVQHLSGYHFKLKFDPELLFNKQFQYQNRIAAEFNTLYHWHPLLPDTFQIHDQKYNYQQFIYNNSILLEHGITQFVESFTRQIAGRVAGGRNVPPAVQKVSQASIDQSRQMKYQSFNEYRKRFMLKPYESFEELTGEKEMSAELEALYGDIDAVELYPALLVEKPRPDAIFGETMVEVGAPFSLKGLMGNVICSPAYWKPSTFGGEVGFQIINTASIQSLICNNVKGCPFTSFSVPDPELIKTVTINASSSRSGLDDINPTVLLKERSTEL
Put plainly: Anti-COX-2 assay (COX-2 Inhibitor Screening Kit).
Protocol: Anti-inflammatory activity was assessed by measuring COX-2 enzymatic inhibition on the basis of a described method by using the COX-2 Inhibitor Screening Kit (Beyotime, No. S0168). Celecoxib, a COX-2 inhibitor, was used as a positive control.

Assay [3] in a line: DPPH· scavenging assay.
Assay [4] is described as follows: FRAP total antioxidant capacity assay. On the procedure: (§1) Fast colourimetric methods were slightly modified for the in vitro assessment of DPPH· scavenging, ABTS·+ decolourisation capacity, and total antioxidant capacity of FRAP. The stock solutions of derivatisation reagents were diluted as follows before measurement: DPPH was diluted with absolute ethanol until the absorbance was 0.8±0.05 at λ=517 nm. ABTS working solution was prepared with phosphate buffer (0.2 M, pH 7.4) to display absorbance of 0.8±0.05 at λ=729 nm, based on a previous study. The FRAP solution was prepared according to the instructions of the FRAP kit. Absorbances were measured using an automatic microplate reader (Molecular Group Ltd., USA), and all analyses were performed using 96-well plates. All measurements were performed in triplicate, and Trolox was used as a positive control.
For total antioxidant capacity, 180 μl of FRAP solution was mixed with 5 μl of sample solution, and the absorbance was measured after 5 min at […] with PBS as the negative control. FeSO4 solutions (0.15, 0.3, 0.6, 0.9, 1.2, and 1.5 mM) were used for the calibration curve. The FRAP value represents the corresponding concentration of FeSO4 solutions (mM FeSO4). The regression equation from the standard curve was used to calculate the equivalent concentration 1 (EC1) of each sample. EC1 is defined as the concentration of the test sample with an absorbance equivalent to that of 1.0 mmol/L of FeSO4 solution, determined by its calibration curve.

The nature of assay [5]: ABTS·+ decolourisation assay. As to conditions: for IC50: read-out: IC50 against the ABTS radical. On the procedure:
as §1
For ABTS·+ decolourisation capacity, 100 μl of ABTS working solution was mixed with 200 μl of sample solution, and the absorbance was recorded after 10 min at 729 nm. Phosphate buffer (0.2 M, pH 7.4) was used as a negative control.
DPPH· and ABTS·+ radical scavenging activities of the tested sample were both calculated using the following formula: […]
where A control and A sample represent the absorbance of the control and test samples, respectively. The IC50 was calculated graphically from the dose-inhibition curves.

“Also recorded” adds a separate entry of the source. Where two headings read alike, the source gives them in different places. A value given as a limit tells only on which side of the number the result lay.

`O=C(/C=C/c1ccc(O)c(O)c1)O[C@@H]1O[C@H](CO)[C@@H](O)[C@H](O)[C@H]1O` [Compound 5, 1-O-caffeoyl-β-D-glucoside]: in assay [1], the “ABTS radical scavenging by size of negative peaks at 734 nm (in words)” value (from here on “ABTS radical scavenging by size”) is on record as “strongest ABTS radical scavengers”.

Turning to `O=c1cc(-c2ccc(O)cc2)oc2c([C@@H]3O[C@H](CO)[C@@H](O)[C@H](O)[C@H]3O)c(O)c([C@@H]3O[C@H](CO)[C@@H](O)[C@H](O)[C@H]3O)c(O)c12` [Compound 10, Vicenin-2], the “ABTS radical scavenging by size” value in assay [1] is reported as “strongest ABTS radical scavengers”. In addition, in assay [2], the “COX-2 inhibition (in words)” value is on record as “no inhibitory effects”.

Consider `O=c1cc(-c2ccc(O)c(O)c2)oc2c(C3OC(CO)C(O)C(O)C3O)c(O)c(C3OCC(O)C(O)C3O)c(O)c12` [Compound 11, Luteolin-6-C-β-D-xyloside-8-C-β-D-glucoside], for which, in assay [1], the “ABTS radical scavenging by size” value was “strongest ABTS radical scavengers”. Moreover, in assay [3], the “antioxidant ability by DPPH (in words)” value was “great antioxidant potency”. Also, the “antioxidant ability by FRAP (in words)” value in assay [4] is recorded as “great antioxidant potency”. Also, in assay [4] (Table 11, mean ± SD, n = 3), the “FRAP EC1 (mM)” value was 1,009.1 µM. Further, the “COX-2 inhibition (in words)” value in assay [2] is “great COX-2 inhibition; also recorded: outstanding COX-2 inhibitory effects”.

For orientation: IC50 means the midpoint of a concentration-inhibition curve. As for `O=c1cc(-c2ccc(O)cc2)oc2c([C@@H]3O[C@H](CO)[C@@H](O)[C@H](O)[C@H]3O)c(O)c([C@@H]3OC[C@@H](O)[C@H](O)[C@H]3O)c(O)c12` [Compound 14, Vicenin-1], in assay [5], the IC50 stood at 96.4 ± 2.11 µM.

On to `O=c1cc(-c2ccc(O)c(O)c2)oc2c(C3OCC(O)C(O)C3O)c(O)c(C3OC(CO)C(O)C(O)C3O)c(O)c12` [Compound 15, Luteolin-6-C-β-D-glucoside-8-C-β-D-xyloside], for which the “antioxidant ability by DPPH (in words)” value in assay [3] is given as “great antioxidant potency”. In addition, the “antioxidant ability by FRAP (in words)” value in assay [4] is “great antioxidant potency”. In assay [4] (Table 11, mean ± SD, n = 3), the “FRAP EC1 (mM)” value was 1,100.3 µM. Also, in assay [2], the “COX-2 inhibition (in words)” value was “great COX-2 inhibition; also recorded: outstanding COX-2 inhibitory effects”.

For `O=c1c(OC2OC(CO)C(O)C(O)C2OC2OC(CO)C(O)C(O)C2O)c(-c2ccc(O)c(O)c2)oc2cc(O)cc(O)c12` (centres unmarked) [Compound 16, Quercetin-3-O-sophoroside], the “ABTS radical scavenging by size” value in assay [1] is given as “strongest ABTS radical scavengers”. The “antioxidant ability by DPPH (in words)” value in assay [3] is given as “great antioxidant potency”. Moreover, in assay [5], the IC50 turned out to be 6.63 ± 0.41 µM. Moreover, the “antioxidant ability by FRAP (in words)” value in assay [4] is “great antioxidant potency”. The compound also showed an FRAP EC1 in assay [4] (Table 11, mean ± SD, n = 3) of 950 µM. For the same compound, the “COX-2 inhibition (in words)” value in assay [2] is recorded as “great COX-2 inhibition; also recorded: outstanding COX-2 inhibitory effects”.

As for `O=c1cc(-c2ccc(O)cc2)oc2c([C@@H]3OC[C@H](O)[C@H](O)[C@H]3O)c(O)c([C@@H]3O[C@H](CO)[C@@H](O)[C@H](O)[C@H]3O)c(O)c12` [Compound 17, Schaftoside], in assay [2], the “COX-2 inhibition (in words)” value is “no inhibitory effects”.

On to `O=c1cc(-c2ccc(O)c(O)c2)oc2cc(O)c(C3OC(CO)C(O)C(O)C3O)c(O)c12` [Compound 18, Luteolin-6-C-β-D-glucoside], for which the “antioxidant ability by DPPH (in words)” value in assay [3] was “great antioxidant potency”. The “antioxidant ability by FRAP (in words)” value in assay [4] is “great antioxidant potency”. Besides, the FRAP EC1 in assay [4] (Table 11, mean ± SD, n = 3) was 507 µM. Moreover, the “COX-2 inhibition (in words)” value in assay [2] was “great COX-2 inhibition; also recorded: outstanding COX-2 inhibitory effects”.

For the compound `O=c1cc(-c2ccc(O)cc2)oc2c([C@@H]3OC[C@@H](O)[C@H](O)[C@H]3O)c(O)c([C@@H]3O[C@H](CO)[C@@H](O)[C@H](O)[C@H]3O)c(O)c12` [Compound 19, Vicenin-3], the “COX-2 inhibition (in words)” value in assay [2] is reported as “no inhibitory effects”.

As to `O=c1cc(-c2ccc(O)cc2)oc2c([C@H]3OC[C@H](O)[C@H](O)[C@H]3O)c(O)c([C@@H]3O[C@H](CO)[C@@H](O)[C@H](O)[C@H]3O)c(O)c12` [Compound 21, Neoschaftoside], the “antioxidant ability by DPPH (in words)” value in assay [3] was “great antioxidant potency”. Further, the “antioxidant ability by FRAP (in words)” value in assay [4] was “great antioxidant potency”.

In the case of `O=c1c(O[C@@H]2O[C@H](CO)[C@@H](O)[C@H](O)[C@H]2O)c(-c2ccc(O)c(O)c2)oc2cc(O)cc(O)c12` [Compound 25, Isoquercitrin], the “ABTS radical scavenging by size” value in assay [1] was “strongest ABTS radical scavengers”. Also, the “antioxidant ability by DPPH (in words)” value in assay [3] was “great antioxidant potency”; in assay [3] (listed as isoquercitrin), “selective and significant antioxidant abilities”. The “antioxidant ability by FRAP (in words)” value in assay [4] is “great antioxidant potency”; in assay [4] (listed as isoquercitrin), “selective and significant antioxidant abilities”. Also, the FRAP EC1 in assay [4] (Table 11, mean ± SD, n = 3) turned out to be 520 µM. The results for the “COX-2 inhibition (in words)” value in assay [2] and in assay [2] (listed as isoquercitrin) were “great COX-2 inhibition; also recorded: outstanding COX-2 inhibitory effects” and “potent COX-2 inhibitory capacity”, respectively.

As to `O=c1cc(-c2ccc(O)cc2)oc2c([C@@H]3OC[C@@H](O)[C@H](O)[C@H]3O)c(O)c([C@@H]3OC[C@H](O)[C@H](O)[C@H]3O)c(O)c12` [Compound 26, Apigenin-6-C-α-L-arabinoside-8-C-β-D-xyloside], the “FRAP EC1 (mM)” value in assay [4] (Table 11, mean ± SD, n = 3) was >5,000 µM. Besides, the “COX-2 inhibition (in words)” value in assay [2] was “no inhibitory effects”.

As to `O=C(O)CC(=O)OCC1OC(Oc2c(-c3ccc(O)c(O)c3)oc3cc(O)cc(O)c3c2=O)C(O)C(O)C1O` (centres unmarked) [Compound 27, Quercetin 3-O-(6″-malonyl-glucoside)], the “ABTS radical scavenging by size” value in assay [1] is reported as “strongest ABTS radical scavengers”. Besides, in assay [3], the “antioxidant ability by DPPH (in words)” value was “great antioxidant potency”. Also, in assay [4], the “antioxidant ability by FRAP (in words)” value is on record as “great antioxidant potency”. In assay [4] (Table 11, mean ± SD, n = 3), this compound returned an FRAP EC1 of 827 µM. Further, in assay [2], the “COX-2 inhibition (in words)” value is on record as “great COX-2 inhibition; also recorded: outstanding COX-2 inhibitory effects”.

For the compound `CC1OC(OCC2OC(Oc3c(-c4ccc(O)cc4)oc4cc(O)cc(O)c4c3=O)C(O)C(O)C2O)C(O)C(O)C1O` (centres unmarked) [Compound 28, Kaempferol-3-O-rutinoside], the “COX-2 inhibition (in words)” value in assay [2] is “no inhibitory effects”.

Take `O=c1c(O[C@@H]2O[C@H](CO)[C@@H](O)[C@H](O)[C@H]2O)c(-c2ccc(O)cc2)oc2cc(O)cc(O)c12` [Compound 31, Astragalin]: the “COX-2 inhibition (in words)” value in assay [2] is given as “no inhibitory effects”.

Regarding `COc1cc(-c2oc3cc(O)cc(O)c3c(=O)c2O[C@@H]2O[C@H](CO)[C@@H](O)[C@H](O)[C@H]2O)ccc1O` [Compound 32, Isorhamnetin-3-O-glucoside], the concentration for half-maximal inhibition (IC50) in assay [3] was determined as 2370 µM; in assay [2], 535 ± 150 µM. Also, the “EC1 of FRAP” value in assay [4] is 2,757.3±103.8 μM.

As to `Cc1c(C)c2c(c(C)c1O)CCC(C)(C(=O)O)O2` (centres unmarked) [Trolox, 6-hydroxyl-2,5,7,8-tetra-methylchroman-2-carboxylic acid, reference compound], the “ABTS IC50” value in assay [5] (text b269) worked out at 27.68 ± 1.04 µg/mL. Moreover, the FRAP EC1 is 560 µM in assay [4] (Table 11, mean ± SD, n = 3) and 55.35 ± 5.22 µg/mL in assay [4] (concentration equivalent to 1.0 mmol/L FeSO4, text b269).
